A short description of one data set: Water solubility. The class given is physicochemical. The conditions noted are these: described as good water solubility.
In data set [1] the target is T1, rhMMP-12 (Homo sapiens, UniProt P39900).
T1 construct: purchased R&D Systems (Minneapolis, MN, USA)
Kind of data set: MMP inhibition assay, fluorogenic substrate cleavage kinetics. The conditions noted are these: mean ± SD of three experiments. The format is biochemical. On the procedure: (§1) MMP inhibition assays were carried out based on the kinetic effects of an inhibitor on the MMP-mediated catalytic cleavage of a fluorogenic substrate, namely Mca-Lys-Pro-Leu-Gly-Leu-Dpa-Ala-Arg-NH2, as reported by others previously[9],[23],[28]. In the first set of studies, the inhibitory effect of RYM was evaluated against 5 activated recombinant human (rh)MMPs, including rhMMP-2, rhMMP-7, rhMMP-9, rhMMP-12, and rhMMP-13. […] RYM also had potent MMP inhibition with Ki values at nM concentrations.
Next, we evaluated the effect of ^99mTc-labeling on RYM MMP inhibition, using rhMMP-12 as a representative enzyme. A solution of ^99mTc-RYM1 prepared from 2 µg of RYM1 was decayed at −80 °C for two days, lyophilized, and re-dissolved in saline for MMP inhibition assays.
The recombinant human MMPs (rhMMPs) including rhMMP-2, rhMMP-7, rhMMP-9, rhMMP-12, and rhMMP-13 were purchased from R&D Systems (Minneapolis, MN, USA). […] The microplate fluorescence was measured at 320 nm (excitation) and 405 nm (emission) wavelengths for 30 min (1.44 min intervals, sensitivity 100, shaking intensity 4 and duration 30 s) by a fluorescent plate reader (BIO-TEK/Synergy HT) to generate the fluorescence kinetic curves and related mean velocity values (v), i.e. relative fluorescence units per min (RFU/min). […]

Another data set concerns the target T2, rhMMP-7 (Homo sapiens, UniProt P09237).
T2 construct: purchased R&D Systems (Minneapolis, MN, USA)
T2 sequence (P09237 95-267): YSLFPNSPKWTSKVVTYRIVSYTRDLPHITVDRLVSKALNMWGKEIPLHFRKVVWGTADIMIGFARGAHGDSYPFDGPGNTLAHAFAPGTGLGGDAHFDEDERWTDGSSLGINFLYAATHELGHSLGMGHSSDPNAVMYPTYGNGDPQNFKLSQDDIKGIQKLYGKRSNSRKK
The data set is described as above. The class given is biochemical. The conditions noted are these: mean ± SD of three experiments. On the procedure: as §1
The recombinant human MMPs (rhMMPs) including rhMMP-2, rhMMP-7, rhMMP-9, rhMMP-12, and rhMMP-13 were purchased from R&D Systems (Minneapolis, MN, USA). […] The microplate fluorescence was measured at 320 nm (excitation) and 405 nm (emission) wavelengths for 30 min (1.44 min intervals, sensitivity 100, shaking intensity 4 and duration 30 s) by a fluorescent plate reader (BIO-TEK/Synergy HT) to generate the fluorescence kinetic curves and related mean velocity values (v), i.e. relative fluorescence units per min (RFU/min). Finally, the competitive inhibition constants (Ki value) were calculated from the mean velocity values, and related substrate (S) and inhibitor (I) concentrations using GraphPad Prism 6 by the following equation for competitive inhibition, where Vmax is the maximal velocity, the KM Michaelis-Menten constant: v=Vmax[S]/KM(1+[I]/Ki)+[S]

For another data set, the target named is T3, rhMMP-13 (Homo sapiens, UniProt P45452).
T3 construct: purchased R&D Systems (Minneapolis, MN, USA)
The data set is described as above. The class given is biochemical. On the procedure:
(§2) MMP inhibition assays were carried out based on the kinetic effects of an inhibitor on the MMP-mediated catalytic cleavage of a fluorogenic substrate, namely Mca-Lys-Pro-Leu-Gly-Leu-Dpa-Ala-Arg-NH2, as reported by others previously[9],[23],[28]. In the first set of studies, the inhibitory effect of RYM was evaluated against 5 activated recombinant human (rh)MMPs, including rhMMP-2, rhMMP-7, rhMMP-9, rhMMP-12, and rhMMP-13.
(§3) The recombinant human MMPs (rhMMPs) including rhMMP-2, rhMMP-7, rhMMP-9, rhMMP-12, and rhMMP-13 were purchased from R&D Systems (Minneapolis, MN, USA). A buffer consisting of 50 mM Tris, 10 mM CaCl2, 150 mM NaCl, 0.05% Brij-35 (w/v) (pH 7.5, […]) was used for all the MMP assays. A mixture of the rhMMPs (500 ng, 9 µL in assay buffer) and p-aminophenylmercuric acetate (APMA, 1 µL, 10.0 mM in DMSO) was incubated at 37 °C (1 h/rhMMP-2, 2 h/rhMMP-7, 24 h/rhMMP-9, 4 h/rhMMP-12, and 2 h/rhMMP-13) according to the procedures described by R&D Systems. The activated MMPs were diluted to 500 µL in the assay buffer for inhibition assays. The assays were carried out in 96-well black non-binding surface microplates (Fisher Scientific). Seventy microliter (for inhibitor wells) and 80 µL (control wells) of the assay buffer were first added into each well as designed, followed by adding 10 µL (10 ng) of the activated MMP solutions into each well. The inhibitor solutions at 4 different concentrations (10 µL each well) were added into the corresponding inhibitor wells in the microplate which was then swirled at room temperature for 30 min. Ten microliter of the fluorogenic MMP substrate solutions (R&D SYSTEMS®) at 4 different concentrations (20.0, 30.0, 40.0, and 50.0 µM) in assay buffer were added into each well to make a total volume of 100 µL. […] Finally, the competitive inhibition constants (Ki value) were calculated from the mean velocity values, and related substrate (S) and inhibitor (I) concentrations using GraphPad Prism 6 by the following equation for competitive inhibition, where Vmax is the maximal velocity, the KM Michaelis-Menten constant: v=Vmax[S]/KM(1+[I]/Ki)+[S]

For a further data set, the target named is T4, rhMMP-9 (Homo sapiens, UniProt P14780).
T4 construct: purchased R&D Systems (Minneapolis, MN, USA)
T4 sequence (P14780 107-707 limits assumed): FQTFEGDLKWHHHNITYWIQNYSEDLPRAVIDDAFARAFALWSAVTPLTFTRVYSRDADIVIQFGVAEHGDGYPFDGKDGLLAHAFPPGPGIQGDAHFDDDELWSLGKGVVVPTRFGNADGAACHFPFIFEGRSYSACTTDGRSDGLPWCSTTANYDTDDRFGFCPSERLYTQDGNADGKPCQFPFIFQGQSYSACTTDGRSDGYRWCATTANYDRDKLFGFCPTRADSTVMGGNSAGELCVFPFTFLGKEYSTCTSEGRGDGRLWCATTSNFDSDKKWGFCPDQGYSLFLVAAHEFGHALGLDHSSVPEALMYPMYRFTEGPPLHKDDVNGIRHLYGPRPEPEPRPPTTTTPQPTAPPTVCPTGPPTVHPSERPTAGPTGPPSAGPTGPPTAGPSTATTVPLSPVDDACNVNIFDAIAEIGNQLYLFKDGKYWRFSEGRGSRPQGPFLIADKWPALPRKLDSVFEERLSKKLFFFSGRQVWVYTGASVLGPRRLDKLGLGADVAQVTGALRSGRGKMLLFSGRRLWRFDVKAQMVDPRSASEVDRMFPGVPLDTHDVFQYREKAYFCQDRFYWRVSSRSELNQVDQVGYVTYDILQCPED
The description is as above. The format is biochemical. The conditions noted are these: mean ± SD of three experiments. Here is the method: as §2, §3

A further data set deals with T5, rhMMP-2 (Homo sapiens, UniProt P08253).
T5 construct: purchased R&D Systems (Minneapolis, MN, USA)
T5 sequence (P08253 110-660): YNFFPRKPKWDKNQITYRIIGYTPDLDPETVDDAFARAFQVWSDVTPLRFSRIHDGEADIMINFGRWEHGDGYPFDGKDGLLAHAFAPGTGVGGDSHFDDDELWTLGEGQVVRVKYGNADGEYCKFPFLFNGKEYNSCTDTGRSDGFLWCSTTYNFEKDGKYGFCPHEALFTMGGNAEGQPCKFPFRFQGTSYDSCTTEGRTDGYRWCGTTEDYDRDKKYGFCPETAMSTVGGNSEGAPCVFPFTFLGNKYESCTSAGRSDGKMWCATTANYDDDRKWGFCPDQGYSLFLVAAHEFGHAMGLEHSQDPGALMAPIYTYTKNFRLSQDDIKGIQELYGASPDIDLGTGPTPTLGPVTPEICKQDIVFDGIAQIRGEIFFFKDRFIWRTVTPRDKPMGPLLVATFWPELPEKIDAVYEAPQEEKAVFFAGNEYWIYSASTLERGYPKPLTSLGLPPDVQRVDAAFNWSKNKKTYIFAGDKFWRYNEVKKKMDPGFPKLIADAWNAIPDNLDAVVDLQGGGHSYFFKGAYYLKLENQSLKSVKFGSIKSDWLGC
Described as above. The class given is biochemical. The settings on record: mean ± SD of three experiments. On the procedure: as §2, §3

Data set [2] deals with Recombinant Human TACE/ADAM17 (Homo sapiens, UniProt P78536). Put plainly: TACE inhibition assay, fluorogenic peptide substrate.
Recombinant Human TACE/ADAM17, sequence (P78536 215-824): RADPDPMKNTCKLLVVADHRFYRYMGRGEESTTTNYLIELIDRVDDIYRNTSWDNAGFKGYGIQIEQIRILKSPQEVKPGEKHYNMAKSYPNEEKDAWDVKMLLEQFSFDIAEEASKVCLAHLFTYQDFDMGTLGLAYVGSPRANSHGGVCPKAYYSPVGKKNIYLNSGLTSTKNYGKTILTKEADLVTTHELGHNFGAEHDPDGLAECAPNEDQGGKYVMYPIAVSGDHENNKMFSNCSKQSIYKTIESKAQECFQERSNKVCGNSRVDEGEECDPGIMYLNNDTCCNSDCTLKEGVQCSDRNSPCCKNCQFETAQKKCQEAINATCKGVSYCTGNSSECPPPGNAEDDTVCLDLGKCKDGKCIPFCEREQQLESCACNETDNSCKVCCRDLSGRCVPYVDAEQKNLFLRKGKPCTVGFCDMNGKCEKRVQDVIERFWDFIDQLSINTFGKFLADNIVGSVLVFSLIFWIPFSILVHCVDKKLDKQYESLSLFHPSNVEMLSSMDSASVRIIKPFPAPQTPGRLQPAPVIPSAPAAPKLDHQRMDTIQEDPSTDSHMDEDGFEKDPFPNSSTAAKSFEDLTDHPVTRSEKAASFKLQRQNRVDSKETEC
The conditions of data set [3]: background statement, no own test described; cited from earlier work.
The target of data set [4] is T1, rhMMP-12. Details: method as in PMID 28360209. The conditions noted are these: value marked with citation; cited from earlier work.

In brackets after ≈: the same amount, converted by molar mass. Read-outs that look alike come from different tables or passages of the source.

T1 sequence (P39900 106-470): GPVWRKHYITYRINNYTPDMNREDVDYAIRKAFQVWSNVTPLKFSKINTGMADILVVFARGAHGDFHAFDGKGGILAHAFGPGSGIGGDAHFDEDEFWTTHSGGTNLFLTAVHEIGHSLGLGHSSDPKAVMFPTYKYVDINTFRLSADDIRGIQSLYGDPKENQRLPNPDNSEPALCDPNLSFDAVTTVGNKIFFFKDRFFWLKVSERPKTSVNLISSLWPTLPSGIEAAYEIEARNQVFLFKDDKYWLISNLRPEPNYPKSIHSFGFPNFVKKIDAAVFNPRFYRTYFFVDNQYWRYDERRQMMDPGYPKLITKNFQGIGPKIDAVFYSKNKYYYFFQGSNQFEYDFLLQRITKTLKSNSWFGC

Consider `CNC(=O)C(CCCNC(=N)N)NC(=O)C1Cc2ccc(cc2)OCCCC(C(=O)NO)C(CC(C)C)C(=O)N1` (centres unmarked) [RYM], for which the solubility in the data set “Water solubility” was 10000 µg/mL (≈ 17.8 mM). The Ki on rhMMP-12 [1] was found to be 1 ± 0.5 nM; on rhMMP-7 it was 17.2 ± 0.1 nM; at rhMMP-13 (mean ± SD of three experiments, read-out: Ki rhMMP-13), 15.3 ± 5.4 nM; at rhMMP-9, 20.4 ± 2 nM; on rhMMP-2, 5.8 ± 0.4 nM; in data set [2], 4.9 ± 1.3 nM.
As for `CNC(=O)[C@H](Cc1ccccc1)NC(=O)[C@H](CC(C)C)[C@H](CSc1cccs1)C(=O)NO` [batimastat (BB-94), batimastat], the “water solubility (in words)” value in data set [3] is given as “very poor water solubility”.
`CC(C)CC1C(=O)NC(C(=O)NCc2ccc(CNC(=O)c3ccc(NN)nc3)cc2)Cc2ccc(cc2)OCCCC1C(=O)NO` (centres unmarked) [RP805 precursor]: the “water solubility (in words)” value in data set [3] is “poor water solubility”.
For the compound `CNC(=O)[C@H](Cc1c[nH]c2ccccc12)NC(=O)[C@@H](CC(=O)NO)CC(C)C` [GM-6001, reference compound], the “water solubility (in words)” value in data set [3] is listed as “very poor water solubility”. In addition, the Ki at rhMMP-12 [1] was 0.6 nM; on rhMMP-7, 0.4 nM; at rhMMP-13, 0.3 nM; in [2], 113 ± 4.1 nM.
Take `CC(C)CC1C(=O)NC(C(=O)NC(CCCNC(=N)N)C(=O)NCCNC(=O)c2ccc(NN)nc2)Cc2ccc(cc2)OCCCC1C(=O)NO` [RYM1, (6 S,7 R,10 S)-N^10-((S)-5-guanidino-1-((2-(6-hydrazinylnicotinamido)ethyl)amino)-1-oxopentan-2-yl)-N^6-hydroxy-7-isobutyl-8-oxo-2-oxa-9-aza-1(1,4)-benzenacyclo undecaphane-6,10-dicarboxamide]: the Ki on rhMMP-12 [4] was 2.2 ± 0.5 nM; in data set [2], 8.6 ± 2.2 nM. The solubility in the data set “Water solubility” came to 10000 µg/mL (≈ 13.8 mM).

Values taken from PMC6076275, “Novel Arginine-containing Macrocyclic MMP Inhibitors: Synthesis, ^99mTc-labeling, and Evaluation” (Scientific Reports, 2018).
